Assay results taken from ChEMBL document CHEMBL1122732, “Vitamin K dependent carboxylation: synthesis and biological properties of tetrazolyl analogues of pentapeptidic substrates” (J Med Chem, 1984).

Experiments:
[1] = (§1) Compound were evaluated for its binding affinity against vitamin K dependent carboxylation
[2] = as §1; remark: listed apart in the source

Ki [1]	Km [2]	Molecule
20 mM	–	H-FLEEV-OH
3.1 mM	–	CC(C)C[C@H](NC(=O)[C@@H](N)Cc1ccccc1)C(=O)N[C@@H](CCc1nn[nH]n1)C(=O)N[C@@H](CCc1nn[nH]n1)C(=O)N[C@H](C(=O)O)C(C)C
3 mM	3000 µM	CC(C)C[C@H](NC(=O)[C@@H](N)Cc1ccccc1)C(=O)N[C@@H](CCC1N=NN=N1)C(=O)N[C@@H](CCC1N=NN=N1)C(=O)N[C@H](C(=O)O)C(C)C
